Assay results published in PubChem BioAssay AID248 (DTP/NCI, 2004).
Values joined by “and” are separate entries in the source; they are usually repeats but may differ in a detail not shown here. Identical values can stand only once. Inconclusive results and toxic doses are left out. Rule as the data show it: active = T/C of 150% or more; inactive = T/C below 125%.

System: L1210 leukemia ip in BDF1 mice, survival T/C
Assay: NCI In Vivo Anticancer Drug Screen. Data for tumor model L1210 Leukemia (intraperitoneal) in B6D2F1 (BDF1) mice
Conditions: endpoint: mean survival time, higher = longer survival
Method in brief: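 Each compound was tested against a transplantable tumor grown in mice. The endpoint was survival, with treated animals benchmarked against vehicle controls as a simple ratio.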

[1] = dose: 100.0 mg/kg/injection, schedule: Q01DX009 (ip), vehicle: Klucel (hydroxypropylcellulose) (HPC)
[2] = dose: 200.0 mg/kg/injection, schedule: Q01DX009 (ip), vehicle: Klucel (hydroxypropylcellulose) (HPC)
[3] = dose: 200.0 mg/kg/injection, schedule: Q04DX003 (ip), vehicle: Klucel (hydroxypropylcellulose) (HPC)
[4] = dose: 400.0 mg/kg/injection, schedule: Q01DX009 (ip), vehicle: Klucel (hydroxypropylcellulose) (HPC)
[5] = dose: 400.0 mg/kg/injection, schedule: Q04DX003 (ip), vehicle: Klucel (hydroxypropylcellulose) (HPC)
[6] = dose: 100.0 mg/kg/injection, schedule: Q01DX001 (ip), vehicle: carboxymethylcellulose (CMC)
[7] = dose: 200.0 mg/kg/injection, schedule: Q01DX001 (ip), vehicle: carboxymethylcellulose (CMC)
[8] = dose: 400.0 mg/kg/injection, schedule: Q01DX001 (ip), vehicle: carboxymethylcellulose (CMC)
[9] = dose: 100.0 mg/kg/injection, schedule: Q04DX003 (ip), vehicle: saline with Tween-80
[10] = dose: 200.0 mg/kg/injection, schedule: Q04DX003 (ip), vehicle: saline with Tween-80
[11] = dose: 400.0 mg/kg/injection, schedule: Q04DX002 (ip), vehicle: saline with Tween-80
[12] = dose: 400.0 mg/kg/injection, schedule: Q04DX003 (ip), vehicle: saline with Tween-80
[13] = dose: 100.0 mg/kg/injection, schedule: Q01DX009 (ip), vehicle: saline
[14] = dose: 100.0 mg/kg/injection, schedule: Q04DX003 (ip), vehicle: saline
[15] = dose: 200.0 mg/kg/injection, schedule: Q04DX003 (ip), vehicle: saline
[16] = dose: 400.0 mg/kg/injection, schedule: Q04DX003 (ip), vehicle: saline
[17] = dose: 100.0 mg/kg/injection, schedule: Q04DX003 (ip), vehicle: Klucel (hydroxypropylcellulose) (HPC)
[18] = dose: 25.0 mg/kg/injection, schedule: Q04DX003 (ip), vehicle: Klucel (hydroxypropylcellulose) (HPC)
[19] = dose: 50.0 mg/kg/injection, schedule: Q04DX003 (ip), vehicle: Klucel (hydroxypropylcellulose) (HPC)
[20] = dose: 100.0 mg/kg/injection, schedule: Q01DX001 (ip), vehicle: Klucel (hydroxypropylcellulose) (HPC)
[21] = dose: 100.0 mg/kg/injection, schedule: Q04DX002 (ip), vehicle: saline
[22] = dose: 100.0 mg/kg/injection, schedule: Q01DX009 (ip), vehicle: saline with Tween-80
[23] = dose: 200.0 mg/kg/injection, schedule: Q01DX009 (ip), vehicle: saline with Tween-80
[24] = dose: 400.0 mg/kg/injection, schedule: Q01DX009 (ip), vehicle: saline with Tween-80

Measured: T/C

Cc1nn(C)c2ccc([N+](=O)[O-])cc12
inactive: [1] 91 % of control | [2] 102 % of control | [3] 97 % of control | [4] 96 % of control | [5] 98 % of control

O=[N+]([O-])c1ccc(S(=O)(=O)C2CCCCC2Cl)c([N+](=O)[O-])c1 (centres undefined)
inactive: dose: 50.0 mg/kg/injection, schedule: Q01DX001 (ip), vehicle: carboxymethylcellulose (CMC) 95 % of control | [6] 111 % of control | [7] 106 % of control | [8] 101 % of control

O=C1c2cc(Cl)ccc2-c2c(F)cc(Cl)cc21
inactive: [6] 103 % of control | [7] 105 % of control | [8] 105 % of control

Brc1ccc(N=C2NN=CC2(c2ccccc2)c2ccccc2)cc1
inactive: [6] 94 % of control | [7] 88 % of control | [8] 88 % of control

C[Si](C)(C)Cc1ccc(F)cc1
inactive: dose: 25.6 mg/kg/injection, schedule: Q04DX002 (ip), vehicle: saline with Tween-80 90 % of control | dose: 64.0 mg/kg/injection, schedule: Q04DX002 (ip), vehicle: saline with Tween-80 93 % of control | [9] 93 % of control | dose: 160.0 mg/kg/injection, schedule: Q04DX002 (ip), vehicle: saline with Tween-80 97 % of control | [10] 97 % of control | [11] 97 % of control | [12] 93 % of control

CC(=O)C1(C)CC=CCC1C(=O)O (centres undefined)
inactive: [13] 107 % of control | [14] 119 % of control | dose: 200.0 mg/kg/injection, schedule: Q01DX009 (ip), vehicle: saline 116 % of control | [15] 101 % of control | dose: 400.0 mg/kg/injection, schedule: Q01DX009 (ip), vehicle: saline 107 % of control | [16] 106 % of control

COc1c2c(c(OC)c3c1C(=O)c1ccccc1C3=O)CC(C(C)=O)CC2 (centres undefined)
inactive: [9] 94 % of control | [10] 92 % of control | [12] 92 % of control

Nc1nc(SCc2ccccc2)c2ncn(C3CCCC3)c2n1
inactive: [6] 95 % of control | [7] 95 % of control | [8] 92 % of control | dose: 700.0 mg/kg/injection, schedule: Q01DX015 (ip), vehicle: carboxymethylcellulose (CMC) 101 % of control | dose: 800.0 mg/kg/injection, schedule: Q01DX015 (ip), vehicle: carboxymethylcellulose (CMC) 101 % of control

O=c1oc2ccc3ccccc3c2c(-c2ccc(O)cc2)c1-c1ccccc1
inactive: dose: 100.0 mg/kg/injection, schedule: Q01DX001 (ip), vehicle: saline with Tween-80 89 % of control | dose: 200.0 mg/kg/injection, schedule: Q01DX001 (ip), vehicle: saline with Tween-80 92 % of control | dose: 400.0 mg/kg/injection, schedule: Q01DX001 (ip), vehicle: saline with Tween-80 92 % of control

O=C1CCC/C1=C/c1ccccc1
inactive: [6] 97 % of control | [17] 93 % of control | [7] 91 % of control | [3] 95 % of control | [8] 91 % of control | [5] 88 % of control

CC(=O)Nc1ccccc1C[P+](c1ccccc1)(c1ccccc1)c1ccccc1
inactive: [18] 97 % of control | [19] 98 % of control | [17] 100 % of control

Cc1cccc(CNC(=O)NCCCl)c1C
inactive: [20] 100 % of control | dose: 200.0 mg/kg/injection, schedule: Q01DX001 (ip), vehicle: Klucel (hydroxypropylcellulose) (HPC) 97 % of control | dose: 400.0 mg/kg/injection, schedule: Q01DX001 (ip), vehicle: Klucel (hydroxypropylcellulose) (HPC) 95 % of control

O=C(N/N=C/c1ccc2c(c1)CCC2)Nc1ccc([N+](=O)[O-])cc1[N+](=O)[O-]
inactive: [14] 91 % of control | [15] 98 % of control | [16] 101 % of control

CCCCOC(=O)CN(C)/N=N/c1nc[nH]c1C(=O)OCC
inactive: dose: 25.0 mg/kg/injection, schedule: Q01DX001 (ip), vehicle: Klucel (hydroxypropylcellulose) (HPC) 97 % of control | [18] 99 % of control | dose: 50.0 mg/kg/injection, schedule: Q01DX001 (ip), vehicle: Klucel (hydroxypropylcellulose) (HPC) 97 % of control | [19] 96 % of control | [20] 99 % of control and 104 % of control | [17] 94 % of control

CCC(=O)OCC1OC(n2cnc3c(=S)nc(N)[nH]c32)C(OC(=O)CC)C1OC(=O)CC (centres undefined)
active: dose: 8.0 mg/kg/injection, schedule: Q01DX Z (ip), vehicle: carboxymethylcellulose (CMC) 169 % of control | dose: 12.0 mg/kg/injection, schedule: Q01DX Z (ip), vehicle: carboxymethylcellulose (CMC) 151 % of control and 154 % of control | dose: 27.0 mg/kg/injection, schedule: Q01DX Z (ip), vehicle: carboxymethylcellulose (CMC) 156 % of control | dose: 40.0 mg/kg/injection, schedule: Q01DX Z (ip), vehicle: carboxymethylcellulose (CMC) 151 % of control
inactive: dose: 0.8 mg/kg/injection, schedule: Q01DX Z (ip), vehicle: carboxymethylcellulose (CMC) 106 % of control | dose: 1.3 mg/kg/injection, schedule: Q01DX Z (ip), vehicle: carboxymethylcellulose (CMC) 110 % of control | dose: 2.0 mg/kg/injection, schedule: Q01DX Z (ip), vehicle: carboxymethylcellulose (CMC) 120 % of control | dose: 18.0 mg/kg/injection, schedule: Q01DX Z (ip), vehicle: carboxymethylcellulose (CMC) 101 % of control

COc1cc(NS(=O)(=O)c2ccccc2)ccc1C
inactive: [1] 92 % of control | [17] 97 % of control | [2] 91 % of control | [3] 90 % of control | [4] 91 % of control | [5] 87 % of control

O=C(c1ccccc1)C(O)(c1ccccc1)c1ccccc1
inactive: dose: 100.0 mg/kg/injection, schedule: Q04DX002 (ip), vehicle: Klucel (hydroxypropylcellulose) (HPC) 89 % of control | dose: 200.0 mg/kg/injection, schedule: Q04DX002 (ip), vehicle: Klucel (hydroxypropylcellulose) (HPC) 107 % of control | dose: 400.0 mg/kg/injection, schedule: Q04DX002 (ip), vehicle: Klucel (hydroxypropylcellulose) (HPC) 93 % of control

O=C(CNc1ccc2c(c1)Cc1cc(Br)ccc1-2)c1ccc(Br)cc1
inactive: [6] 105 % of control | [7] 111 % of control | [8] 105 % of control

CCCC(C(N)=O)N(CCO)CCO (centres undefined)
inactive: [21] 90 % of control | dose: 200.0 mg/kg/injection, schedule: Q04DX002 (ip), vehicle: saline 90 % of control | dose: 400.0 mg/kg/injection, schedule: Q04DX002 (ip), vehicle: saline 90 % of control

O=c1cc[nH]c2cc(Cl)ccc12
inactive: dose: 50.0 mg/kg/injection, schedule: Q01DX009 (ip), vehicle: saline 102 % of control | [13] 97 % of control

COc1ccc(Cl)c(NC(=O)Nc2cc(Cl)ccc2C)c1
inactive: [22] 94 % of control and 95 % of control | dose: 100.0 mg/kg/injection, schedule: Q04DX002 (ip), vehicle: saline with Tween-80 98 % of control and 91 % of control | [23] 90 % of control | dose: 200.0 mg/kg/injection, schedule: Q04DX002 (ip), vehicle: saline with Tween-80 95 % of control and 91 % of control | [24] 93 % of control | [11] 87 % of control and 90 % of control

CN(CCCN)CCCN
inactive: dose: 25.0 mg/kg/injection, schedule: Q04DX002 (ip), vehicle: saline 115 % of control | dose: 50.0 mg/kg/injection, schedule: Q04DX002 (ip), vehicle: saline 96 % of control | [21] 100 % of control and 104 % of control

CCOc1ccc(NC(=O)c2ccccc2Cl)cc1
inactive: [1] 98 % of control | [2] 95 % of control | [4] 103 % of control

O=C(/C(=C\c1ccccc1)Oc1ccc(S[N+](=O)[O-])cc1)c1ccccc1
inactive: [6] 95 % of control | [7] 92 % of control | [8] 95 % of control

CNC1(Cc2ccc(F)cc2)CCC1
inactive: [13] 100 % of control

CCCCCCSC(=O)Nc1ccc(C)c(NC(=O)SCCCCCC)c1
inactive: [9] 91 % of control | [10] 89 % of control

O=C1C(Br)=C(Br)C(=O)C1(Br)Br
inactive: [9] 87 % of control | [10] 96 % of control | [12] 94 % of control

CCOC(=O)C(=O)Nc1onc(C)c1NC(=O)C(=O)OCC
inactive: [22] 89 % of control | [23] 89 % of control | [24] 92 % of control
